Experimental findings from patent US20240207409A1, “ORAL DELIVERY OF OLIGONUCLEOTIDES” (CiVi Biopharma, Inc., priority 2021, published 2024) are described below.

One series concerns plasma LDL-cholesterol. The series can be described thus: Plasma LDL-cholesterol after daily oral CIVI 008/SNAC capsules for 42 days and recovery (Example 1). The format is in vivo, Cynomolgus monkey. Conditions: for LDL-c in control animals: control capsules, throughout the study. The method, then:
(§1) Toxicity results: The study was conducted to GLP standards and monitored the following toxicity parameters throughout the study (pre-dose, day 14, 29, 42, and end of recovery): • Hematology: red blood cell (erythrocyte) count, hemoglobin, hematocrit, mean corpuscular volume, mean corpuscular hemoglobin, mean corpuscular hemoglobin, concentration, red cell distribution width, absolute reticulocyte count, platelet count, white blood cell (leukocyte) count, absolute neutrophil count, absolute lymphocyte count, absolute monocyte count, absolute eosinophil count, absolute basophil count, absolute large unstained cell count, blood smear. • Clinical chemistry, PCSK9 and lipids: urea nitrogen, creatinine, total protein, albumin, globulin, albumin:globulin ratio, total bilirubin, aspartate aminotransferase, alanine aminotransferase, alkaline phosphatase, gamma glutamyltransferase, creatine kinase, calcium, inorganic phosphorus, sodium, potassium, chloride, high density lipoproteins, low density lipoprotein, very low density lipoprotein, total cholesterol, triglycerides.

The test system of the next series is PCSK9. The series can be described thus: PCSK9 reduction after daily oral CIVI 008/SNAC capsules for 42 days (Example 1). The series is classed as in vivo, Cynomolgus monkey. The settings on record: daily oral for 42 days. On the procedure: as §1
Series [1] in a line: Oral capsule PK study of CIVI 008 without GalNAc using 5-CNAC as carrier (Example 5). The format is in vivo, Cynomolgus monkey. Conditions: single oral capsule, 20 mg/200 mg 5-CNAC; larger. From the text: As shown in previous Examples 1 and 3, orally dosed CIVI 008 with GalNAc is rapidly internalized in the liver by the GalNAc receptor, with very little CIVI 008 escaping into general circulation at doses below that required for saturation of the GalNAc receptor. In many instances the objective is to target genes that are expressed in organs other than the liver. […] The objective of this study was to determine the systemic exposure of orally administered CIVI 008 without the GalNAc conjugate, and to compare the exposure to that of a similar oral dose of CIVI 008 with GalNAc.
Study outline: Dry blended capsules (20 mg CIVI 008 without GalNAc/200 mg 5-CNAC) were manufactured from uniform dry blended formulations, that were filled into enterically coated Size 0, hard shell gelatin capsules. A total of 10 Cynomolgus monkeys (5 males and 5 females) were each administered a single capsule by oral gavage, and blood samples for PK analysis were drawn pre-dose and 0.5, 1.5, 3 and 5 hours post-dosing.

Series [2] can be described thus: Repeat-dose toxicity study to GLP standards, oral capsule (Example 1). Conditions: cynomolgus monkey, in vivo. On the procedure:
as §1

The conditions of series [3]: cynomolgus monkey, in vivo, po.
Protocol: The objectives of this study were to evaluate the toxicity and reversibility of CIVI 008 and to determine the pharmacology, plasma exposure and target organ accumulation of CIVI 008 when administered daily by oral capsule to the Cynomolgus monkey of Mauritian origin for 42 days compared to administration by the subcutaneous route administered once every two weeks (investigated previously).
Oral Capsule: Capsules containing CIVI 008 (10 mg)/SNAC (100 mg) were manufactured as uniform dry blend formulations, that were filled into Size 4 hard shell gelatin capsules that were enterically coated post fill.
Series [4] can be described thus: Liver and intestinal tissue concentrations of CIVI 008 (Example 1). The format is in vivo, Cynomolgus monkey.
Description: The purpose of this study was to provide information on the capsule dosing of CIVI 008 for further clinical trials in humans.
Series [5] is described as follows: Oral capsule toxicokinetic study of CIVI 008 using 5-CNAC as carrier (Example 3). The settings on record: for increase of AUC with dose of CIVI 008 / increase of Cmax with dose of CIVI 008: constant dose of 5-CNAC. The format is in vivo, Cynomolgus monkey. From the text:
The objectives of this study were to determine the ability of 5-CNAC [Disodium N-(5-Chorosalicyloyl)-8-aminocaprylate] to facilitate oral uptake of CIVI 008 and to determine the manufacture method and dosing paradigm of CIVI 008/5-CNAC capsules that provide the most efficient oral uptake of CIVI 008 when administered to Cynomolgus monkeys of Mauritian origin.
Study outline: A total of 10 Cynomolgus monkeys (5 males and 5 females) were each dosed with 2 group A capsules on Monday and Wednesday in week 1, followed by 4 days of dosing holiday. This Monday and Wednesday dosing scheme was continued in weeks 2, 3, 5, 6, 7, 8, 13, 14, 15 and 17 using 2 group B-capsules per dose occasion in week 2, and 1 capsule of groups C to K per dose occasion in their respective weeks. During the dosing period, blood samples for PK analysis were drawn pre-dose and 0.5, 1.5, 3 and 5 hours post-dosing on Mondays and Wednesdays. Samples for clinical chemistry and hematology (see example 1) were taken pre-study and end of study.

A short description of series [6]: Half-life and accumulation of CIVI 008 in the liver. The series is classed as in vivo, non-human primates. The settings on record: expected after 7-weeks of once daily dosing.
Series [7] in a line: Oral capsule PK study of an oligo against Factor VII, with or without GalNAc, using 5-CNAC as carrier (Example 6). The format is in vivo, Cynomolgus monkey. The settings on record: for PK parameters compared to the corresponding CIVI 008 oligos: with and without GalNac. The method, then: Study outline: Dry blended capsules (20 mg Factor FVII with or without GalNac/200 mg 5-CNAC) were manufactured from uniform dry blended formulations, that were filled into enterically coated Size 0, hard shell gelatin capsules. A total of 10 Cynomolgus monkeys (5 males and 5 females) were each administered a single capsule of either oligo by oral gavage, and blood samples for PK analysis were drawn pre-dose and 0.5, 1.5, 3 and 5 hours post-dosing.

[8] abbreviates: dose increased further than 25 mg.
The mark [9] stands for this setting: oral, two group A capsules (each 10 mg CIVI 008/100 mg 5-CNAC, size 4).
The mark [10] stands for this setting: size 4 (group A) to size 0 (group B) capsules.
[11] abbreviates: single oral capsule, 20 mg/200 mg 5-CNAC.
Setting [12] is: single oral capsule, 20 mg/200 mg 5-CNAC, higher.

Read-outs that look alike come from different tables or passages of the source. {GalNAc3NHC6} = trivalent GalNAc moiety with NHC6 linker, (GalNAc3)(NHC6); l = locked nucleic acid (LNA); d = 2'-deoxy (DNA)

Turning to `O=C([O-])CCCCCCCNC(=O)c1ccccc1O.[Na+]` [SNAC, sodium 8-(2-hydroxybenzamido)octanoate, reference compound], in the series with plasma LDL-cholesterol, the “LDL-c in control animals” value is reported as “fluctuated around baseline values”. For the same compound, the “mean PCSK9 reductions in control animals” value in the series on PCSK9 is “comparatively small”.
“CIVI 008 without GalNAc: 16 nt LNA gapmer AbsAbsTbsdGsdCsdTsdAsdCsdAsdAsdAsdAsdCsCbsCbsAb, SEQ ID NO 134, no GalNAc moiety (AATGCTACAAAACCCA; sugars from the 5' end l3 d10 l3, all phosphorothioate, methylation of C not given here)”: in series [1], the “AUC relative to a similar dose of CIVI 008 with GalNac” value was around 8 fold and the “Cmax relative to a similar dose of CIVI 008 with GalNac” value is around 8 fold.
On to “CIVI 008: GalNac conjugated LNA-gapmer antisense oligonucleotide targeting PCSK9 (SEQ ID NO: 134), cepadacursen formulated for oral administration (AATGCTACAAAACCCA; LNA gapmer with GalNAc conjugate, pattern not given here)”, for which the “macroscopic or microscopic findings (local or systemic effects)” value in series [2] is listed as “no macroscopic or microscopic findings”. For the same compound, in series [2] (po), the “local histopathological changes in the intestinal tract (duodenum, jejunum, ileum and colon)” value is on record as “no local histopathological changes”. For the same compound, in [3], the “form of CIVI 008 detected in plasma (HPLC peak)” value was “mixture of parent compound and metabolites”; the “form of CIVI 008 detected in plasma (HPLC retention time)” value is listed as “absorbed intact”; the “mean Tmax” value is at most 30 min. For the same compound, the “concentrations of CIVI 008 in intestinal segments” value in series [4] (all segments, after QD oral dosing for 42 days) is “measurable concentrations”. In series [4] (declined during recovery, 3-week timepoint), the “concentration of CIVI 008 in the liver during the recovery period” value is recorded as “still present in measurable quantities”. Moreover, the “difference in liver concentrations between the SQ and PO arms” value in series [4] (measured at the end of the dosing period) was “approximately one”. Also, the “LDL-c in control animals” value in the series with plasma LDL-cholesterol is given as “fluctuated around baseline values”. In addition, in the series with plasma LDL-cholesterol (end of recovery), the “return of LDL to baseline” value is “had yet to fully return to baseline”. Moreover, in the series on plasma LDL-cholesterol (recovery period after 42 days of dosing), the “LDL levels after the end of dosing” value is reported as “maintained for two weeks post-dosing”. For the same compound, the “mean PCSK9 reductions in control animals” value in the series with PCSK9 is on record as “comparatively small”. In series [5] (setting [8]), the “increase of AUC with dose of CIVI 008” value was “more than dose proportional” and the “increase of Cmax with dose of CIVI 008” value is “more than dose proportional”. In series [5] (up to 25 mg CIVI 008), the “increase of AUC with dose of CIVI 008” value is recorded as “dose proportionally” and the “increase of Cmax with dose of CIVI 008” value is “dose proportionally”. Also, in series [5] (dose range 5 mg to 30 mg), the “AUC profiles, dry blended vs freeze-dried capsules” value is “very similar” and the “Cmax profiles, dry blended vs freeze-dried capsules” value was “very similar”. For the same compound, in series [5] (dry blending vs co-dissolution followed by freeze-drying), the “effect of manufacture method on intestinal absorption” value was “did not appear to affect”. In addition, in series [5] (oral capsules, vs Example 1), the “AUC0-5 with 5-CNAC carrier compared to a similar dose using SNAC as carrier” value is “increase” and the “Cmax with 5-CNAC carrier compared to a similar dose using SNAC as carrier” value is reported as “increase”. In addition, in series [5] (setting [9]), the “concentrations of CIVI 008 in the plasma” value was “measurable concentrations” and the “mean Tmax” value is at most 30 min. Also, in [5] (setting [10]), the “mean Tmax on increasing capsule size” value is listed as “didn't change” and the “mean plasma PK profile on increasing capsule size” value is “didn't change”. Further, the “liver concentration relative to its steady state level” value in series [6] is listed as above 80%.
For “GalNac conjugated Factor FVII oligo: 13 nt ASO against Factor VII, SEQ ID NO 158, with (GalNAc3)(NHC6) moiety (antisense GCACCACGGTCCA; sugars from the 5' end l2 d8 l3, all phosphorothioate, 5' {GalNAc3NHC6}*, methylation of C not given here)”, the “concentrations in the plasma” value in series [7] (setting [11]) was “measurable concentrations”. In addition, in [7], the “PK parameters compared to the corresponding CIVI 008 oligos” value is listed as “quite similar”.
Turning to “unconjugated Factor FVII oligo: 13 nt ASO against Factor VII, SEQ ID NO 158, GbsCbsdAsdCsdCsdAsdCsdGsdGsdTsCbsCbsAb (antisense GCACCACGGTCCA; sugars from the 5' end l2 d8 l3, all phosphorothioate, methylation of C not given here)”, the “concentrations in the plasma” value in [7] (setting [11]) is recorded as “measurable concentrations”. Besides, in series [7] (setting [12]), the “AUC relative to the GalNac conjugated Factor FVII oligo” value is around 3.5 fold and the “Cmax relative to the GalNac conjugated Factor FVII oligo” value is reported as around 3.5 fold. Also, the “PK parameters compared to the corresponding CIVI 008 oligos” value in series [7] is listed as “quite similar”.
